Structure (SMILES)	melting point [°C]
CCC(C)(C)c1c(OCc2ncnn2C)nn2c(-c3c(F)ccc(F)c3F)nncc12 [Example 43, 3-(1,1-Dimethylpropyl)-2-(2-methyl-2H-[1,2,4]triazol-3-ylmethoxy)-7-(2,3,6-trifluorophenyl)pyrazolo[1,5-d][1,2,4]triazine]	122 to 125
Cn1ncnc1COc1nn2c(-c3cccnc3)nncc2c1-c1ccccc1F [Example 45, 3-(2-Fluorophenyl)-2-(2-methyl-2H-[1,2,4]triazol-3-ylmethoxy)-7-(pyridin-3-yl)pyrazolo[1,5-d][1,2,4]triazine]	164 to 166
CCCn1ncnc1COc1nn2c(-c3ccc(F)cc3)nncc2c1-c1ccccc1F [Example 48, 3-(2-Fluorophenyl)-7-(4-fluorophenyl)-2-(2-propyl-2H-[1,2,4]triazol-3-ylmethoxy)pyrazolo[1,5-d][1,2,4]triazine]	148
Cn1ncnc1COc1nn2c(-c3cccc(F)c3)nncc2c1-c1ccccc1F [Example 51, 3-(2-Fluorophenyl)-7-(3-fluorophenyl)-2-(2-methyl-2H-[1,2,4]triazol-3-ylmethoxy)pyrazolo[1,5-d][1,2,4]triazine]	169 to 170
Cn1ncnc1COc1nn2c(-c3ccc(F)cc3F)nncc2c1-c1ccccc1F [Example 52, 7-(2,4-Difluorophenyl)-3-(2-fluorophenyl)-2-(2-methyl-2H-[1,2,4]triazol-3-ylmethoxy)pyrazolo[1,5-d][1,2,4]triazine]	164 to 166
Cn1ncnc1COc1nn2c(-c3ccccc3F)nncc2c1-c1ccccn1 [Example 53, 7-(2-Fluorophenyl)-2-(2-methyl-2H-[1,2,4]triazol-3-ylmethoxy)-3-(pyridin-2-yl)pyrazolo[1,5-d][1,2,4]triazine]	186 to 187
Cn1ncnc1COc1nn2c(-c3ccccc3F)nncc2c1-c1cccs1 [Example 54, 7-(2-Fluorophenyl)-2-(2-methyl-2H-[1,2,4]triazol-3-ylmethoxy)-3-(thien-2-yl)pyrazolo[1,5-d][1,2,4]triazine]	196 to 197
Cn1ncnc1COc1nn2c(-c3ccccc3F)nncc2c1-c1ccco1 [Example 55, 7-(2-Fluorophenyl)-3-(furan-2-yl)-2-(2-methyl-2H-[1,2,4]triazol-3-ylmethoxy)pyrazolo[1,5-d][1,2,4]triazine]	188 to 190
CCn1ncnc1COc1nn2c(-c3ccc(F)cc3F)nncc2c1C(C)(C)C [Example 57, 7-(2,4-Difluorophenyl)-3-(1,1-dimethylethyl)-2-(2-ethyl-2H-[1,2,4]triazol-3-ylmethoxy)pyrazolo[1,5-d][1,2,4]triazine]	145
CCn1ncnc1COc1nn2c(-c3ccccc3F)nncc2c1-c1ccccc1F [Example 58, 2-(2-Ethyl-2H-[1,2,4]triazol-3-ylmethoxy)-3,7-bis(2-fluorophenyl)-pyrazolo[1,5-d][1,2,4]triazine]	164
Cn1cc(COc2nn3c(-c4ccccc4F)nncc3c2-c2ccccc2F)nn1 [Example 61, 3,7-bis(2-Fluorophenyl)-2-(1-methyl-1H-[1,2,3]triazol-4-ylmethoxy)pyrazolo[1,5-d][1,2,4]triazine]	175
Cc1cccc(COc2nn3c(-c4ccccc4F)nncc3c2-c2ccccc2F)n1 [Example 62, 3,7-bis(2-Fluorophenyl)-2-(6-methylpyridin-2-ylmethoxy)pyrazolo[1,5-d][1,2,4]triazine]	197
Fc1ccccc1-c1c(OCc2cccnc2)nn2c(-c3ccccc3F)nncc12 [Example 63, 3,7-bis(2-Fluorophenyl)-2-(pyridin-3-ylmethoxy)pyrazolo[1,5-d][1,2,4]triazine]	146
Fc1ccccc1-c1c(OCc2ccncc2)nn2c(-c3ccccc3F)nncc12 [Example 64, 3,7-bis(2-Fluorophenyl)-2-(pyridin-4-ylmethoxy)pyrazolo[1,5-d][1,2,4]triazine]	143
Fc1ccccc1-c1c(OCc2ncccc2OC2CCC2)nn2c(-c3ccccc3F)nncc12 [Example 65, 2-(3-Cyclobutyloxypyridin-2-ylmethoxy)-3,7-bis(2-fluorophenyl)-pyrazolo[1,5-d][1,2,4]triazine]	66
CCOc1cccnc1COc1nn2c(-c3ccccc3F)nncc2c1-c1ccccc1F [Example 68, 2-(3-Ethoxypyridin-2-ylmethoxy)-3,7-bis(2-fluorophenyl)pyrazolo[1,5-d][1,2,4]triazine]	77
Cc1csc(COc2nn3c(-c4ccccc4F)nncc3c2-c2ccccc2F)n1 [Example 71, 3,7-bis(2-Fluorophenyl)-2-(4-methylthiazol-2-ylmethoxy)pyrazolo[1,5-d][1,2,4]triazine]	176
Cc1cnc(COc2nn3c(-c4ccccc4F)nncc3c2-c2ccccc2F)s1 [Example 72, 3,7-bis(2-Fluorophenyl)-2-(5-methylthiazol-2-ylmethoxy)pyrazolo[1,5-d][1,2,4]triazine]	154
Fc1ccccc1-c1c(OCc2cscn2)nn2c(-c3ccccc3F)nncc12 [Example 73, 3,7-bis(2-Fluorophenyl)-2-(thiazol-4-ylmethoxy)pyrazolo[1,5-d][1,2,4]triazine]	212
Fc1ccccc1-c1c(OCc2cnc3ccccc3n2)nn2c(-c3ccccc3F)nncc12 [Example 79, 3,7-bis(2-Fluorophenyl)-2-(quinoxalin-2-ylmethoxy)pyrazolo[1,5-d][1,2,4]triazine]	209
Fc1ccccc1-c1c(OCc2nc3ccccn3n2)nn2c(-c3ccccc3F)nncc12 [Example 82, 3,7-bis(2-Fluorophenyl)-2-([1,2,4]triazolo[1,5-a]pyridin-2-ylmethoxy)pyrazolo[1,5-d][1,2,4]triazine]	208 to 209
Fc1ccccc1-c1c(OCc2nc3n(n2)CCCC3)nn2c(-c3ccccc3F)nncc12 [Example 83, 3,7-bis(2-Fluorophenyl)-2-(5,6,7,8-tetrahydro[1,2,4]triazolo[1,5-a]pyridin-2-ylmethoxy)pyrazolo[1,5-d][1,2,4]triazine]	150 to 152
Fc1ccccc1-c1c(OCc2ncnn2CC(F)F)nn2c(-c3ccccc3F)nncc12 [Example 85, 2-[2-(2,2-Difluoroethyl)-2H-[1,2,4]triazol-3-ylmethoxy]-3,7-bis(2-fluorophenyl)pyrazolo[1,5-d][1,2,4]triazine]	179 to 180

Now from value to molecule:

melting point [°C]	Structure (SMILES)
214 to 217	CCn1ncnc1COc1nn2c(-c3ccccc3F)nncc2c1-c1ccncc1 [Example 46, 2-(2-Ethyl-2H-[1,2,4]triazol-3-ylmethoxy)-7-(2-fluorophenyl)-3-(pyridin-4-yl)pyrazolo[1,5-d][1,2,4]triazine]
179	CCn1ncnc1COc1nn2c(-c3ccc(F)cc3)nncc2c1-c1ccccc1F [Example 47, 2-(2-Ethyl-2H-[1,2,4]triazol-3-ylmethoxy)-3-(2-fluorophenyl)-7-(4-fluorophenyl)pyrazolo[1,5-d][1,2,4]triazine]
163	Cn1ncnc1COc1nn2c(-c3c(F)cccc3F)nncc2c1-c1ccccc1F [Example 49, 7-(2,6-Difluorophenyl)-3-(2-fluorophenyl)-2-(2-methyl-2H-[1,2,4]triazol-3-ylmethoxy)pyrazolo[1,5-d][1,2,4]triazine]
118	Cn1ncnc1COc1nn2c(-c3ccc(F)cc3F)nncc2c1C(C)(C)C [Example 56, 7-(2,4-Difluorophenyl)-3-(1,1-dimethylethyl)-2-(2-methyl-2H-[1,2,4]triazol-3-ylmethoxy)pyrazolo[1,5-d][1,2,4]triazine]
184	Cn1cnc(COc2nn3c(-c4ccccc4F)nncc3c2-c2ccccc2F)n1 [Example 59, 3,7-bis(2-Fluorophenyl)-2-(1-methyl-1H-[1,2,4]triazol-3-ylmethoxy)pyrazolo[1,5-d][1,2,4]triazine]
188	Cn1nncc1COc1nn2c(-c3ccccc3F)nncc2c1-c1ccccc1F [Example 60, 3,7-bis(2-Fluorophenyl)-2-(3-methyl-3H-[1,2,3]triazol-4-ylmethoxy)pyrazolo[1,5-d][1,2,4]triazine]
143	COc1cccnc1COc1nn2c(-c3ccccc3F)nncc2c1-c1ccccc1F [Example 67, 3,7-bis(2-Fluorophenyl)-2-(3-methoxypyridin-2-ylmethoxy)pyrazolo[1,5-d][1,2,4]triazine]
69	Cc1cccnc1COc1nn2c(-c3ccccc3F)nncc2c1-c1ccccc1F [Example 69, 3,7-bis(2-Fluorophenyl)-2-(3-methylpyridin-2-ylmethoxy)pyrazolo[1,5-d][1,2,4]triazine]
179	CC(C)n1ncnc1COc1nn2c(-c3ccccc3F)nncc2c1-c1ccccc1F [Example 74, 3,7-bis(2-Fluorophenyl)-2-(2-isopropyl-2H-[1,2,4]triazol-3-ylmethoxy)-pyrazolo[1,5-d][1,2,4]triazine]
210	Fc1ccccc1-c1c(OCc2cccnn2)nn2c(-c3ccccc3F)nncc12 [Example 76, 3,7-bis(2-Fluorophenyl)-2-(pyridazin-3-ylmethoxy)pyrazolo[1,5-d][1,2,4]triazine]
189	Fc1ccccc1-c1c(OCc2ccncn2)nn2c(-c3ccccc3F)nncc12 [Example 78, 3,7-bis(2-Fluorophenyl)-2-(pyrimidin-4-ylmethoxy)pyrazolo[1,5-d][1,2,4]triazine]
148	Cn1ncnc1COc1nn2c(-c3ccoc3)nncc2c1-c1ccccc1F [Example 80, 3-(2-Fluorophenyl)-7-(furan-3-yl)-2-(2-methyl-2H-[1,2,4]triazol-3-ylmethoxy)pyrazolo[1,5-d][1,2,4]triazine]
218 to 220	Cn1c(COc2nn3c(-c4ccccc4F)nncc3c2-c2ccccc2F)nc2ccccc21 [Example 81, 3,7-bis(2-Fluorophenyl)-2-(1-methyl-1H-benzimidazol-2-ylmethoxy)pyrazolo[1,5-d][1,2,4]triazine]
172 to 173	FCCn1ncnc1COc1nn2c(-c3ccccc3F)nncc2c1-c1ccccc1F [Example 86, 2-[2-(2-Fluoroethyl)-2H-[1,2,4]triazol-3-ylmethoxy]-3,7-bis(2-fluorophenyl)-pyrazolo[1,5-d][1,2,4]triazine]
